From PubChem BioAssay AID2060892 (Molecular Pharmacology Branch, DTP, NCI, 2025)

Test system: HOP-62 complex spheroids with HUVEC/MSC, viability
Experiment: Anticancer human tumor HOP-62 cell line growth inhibition [RAS];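 further: spheroids exposed to agents for seven days before readout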;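 on viability, T/C: 100% = DMSO vehicle control viability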
Details: for IC50: curve of first compound; for viability, T/C: stronger effect = lower value
Procedure, shortened: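 Multi-cell-type spheroids: tumor cells plus HUVEC endothelial cells and mesenchymal stem cells. RAS-pathway inhibitors were combined with targeted agents, each dosed in half-log steps down from clinical Cmax, or from 10 microM when Cmax was unknown.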

[1] = second compound 0.000949 µM, first compound 0.00316 µM
[2] = second compound 0.000949 µM, first compound 0.01 µM
[3] = second compound 0.000949 µM, first compound 0.0316 µM
[4] = second compound 0.000949 µM, first compound 0.1 µM
[5] = second compound 0.000949 µM, first compound 0.316 µM
[6] = second compound 0.000949 µM, first compound 1 µM
[7] = second compound 0.003 µM, first compound 0.00316 µM
[8] = second compound 0.003 µM, first compound 0.01 µM
[9] = second compound 0.003 µM, first compound 0.0316 µM
[10] = second compound 0.003 µM, first compound 0.1 µM
[11] = second compound 0.003 µM, first compound 0.316 µM
[12] = second compound 0.003 µM, first compound 1 µM
[13] = second compound 0.00949 µM, first compound 0.00316 µM
[14] = second compound 0.00949 µM, first compound 0.01 µM
[15] = second compound 0.00949 µM, first compound 0.0316 µM
[16] = second compound 0.00949 µM, first compound 0.1 µM
[17] = second compound 0.00949 µM, first compound 0.316 µM
[18] = second compound 0.00949 µM, first compound 1 µM
[19] = second compound 0.03 µM, first compound 0.00316 µM
[20] = second compound 0.03 µM, first compound 0.01 µM
[21] = second compound 0.03 µM, first compound 0.0316 µM
[22] = second compound 0.03 µM, first compound 0.1 µM
[23] = second compound 0.03 µM, first compound 0.316 µM
[24] = second compound 0.03 µM, first compound 1 µM
[25] = second compound 0.0949 µM, first compound 0.00316 µM
[26] = second compound 0.0949 µM, first compound 0.01 µM
[27] = second compound 0.0949 µM, first compound 0.0316 µM
[28] = second compound 0.0949 µM, first compound 0.1 µM
[29] = second compound 0.0949 µM, first compound 0.316 µM
[30] = second compound 0.0949 µM, first compound 1 µM
[31] = second compound 0.3 µM, first compound 0.00316 µM
[32] = second compound 0.3 µM, first compound 0.01 µM
[33] = second compound 0.3 µM, first compound 0.0316 µM
[34] = second compound 0.3 µM, first compound 0.1 µM
[35] = second compound 0.3 µM, first compound 0.316 µM
[36] = second compound 0.3 µM, first compound 1 µM
[37] = second compound 0.000949 µM, first compound 3.16 µM
[38] = second compound 0.000949 µM, first compound 10 µM
[39] = second compound 0.003 µM, first compound 3.16 µM
[40] = second compound 0.003 µM, first compound 10 µM
[41] = second compound 0.00949 µM, first compound 3.16 µM
[42] = second compound 0.00949 µM, first compound 10 µM
[43] = second compound 0.03 µM, first compound 3.16 µM
[44] = second compound 0.03 µM, first compound 10 µM
[45] = second compound 0.0949 µM, first compound 3.16 µM
[46] = second compound 0.0949 µM, first compound 10 µM
[47] = second compound 0.3 µM, first compound 3.16 µM
[48] = second compound 0.3 µM, first compound 10 µM

C=CC(=O)Nc1cc(Nc2nccc(-c3cn(C)c4ccccc34)n2)c(OC)cc1N(C)CCN(C)C + CCn1c(-c2cc(N3CCN(C)CC3)cnc2C(C)OC)c2c3cc(ccc31)-c1csc(n1)CC(NC(=O)C1CC1C)C(=O)N1CCCC(N1)C(=O)OCC(C)(C)C2 was tested, and the IC50 (second compound 0.000949 µM) was > 1000 nM, the IC50 (second compound 0.003 µM) was 688 nM and the IC50 (second compound 0.00949 µM) was 278 nM. The IC50 (second compound 0.03 µM) was 6.38 nM, the IC50 (second compound 0.0949 µM) was < 3.16 nM and the IC50 (second compound 0.3 µM) was < 3.16 nM. The viability, T/C [1] was 119%, the viability, T/C [2] was 114% and the viability, T/C [3] was 85.8%. The viability, T/C [4] was 120%, the viability, T/C [5] was 106% and the viability, T/C [6] was 66.4%. The viability, T/C [7] was 97.4%, the viability, T/C [8] was 88.6% and the viability, T/C [9] was 74.4%. For the same compound, the viability, T/C [10] was 89.5%, the viability, T/C [11] was 75.9% and the viability, T/C [12] was 37.4%. For the same compound, the viability, T/C [13] was 76.6%, the viability, T/C [14] was 62.5% and the viability, T/C [15] was 59.7%. It also gave a viability, T/C [16] of 66.5%, a viability, T/C [17] of 47.3% and a viability, T/C [18] of 33.2%. The viability, T/C [19] was 52%, the viability, T/C [20] was 49.2% and the viability, T/C [21] was 42.7%. The viability, T/C [22] was 43.3%, the viability, T/C [23] was 26.6% and the viability, T/C [24] was 30.1%. For the same compound, the viability, T/C [25] was 40.2%, the viability, T/C [26] was 44.1% and the viability, T/C [27] was 33.8%. The viability, T/C [28] was 32.1%, the viability, T/C [29] was 26.4% and the viability, T/C [30] was 24%. The viability, T/C [31] was 42.1%, the viability, T/C [32] was 35.6% and the viability, T/C [33] was 37.4%. For the same compound, the viability, T/C [34] was 33.7%, the viability, T/C [35] was 22.9% and the viability, T/C [36] was 22.7%.

With CC(C)NCC(C(=O)N1CCN(c2ncnc3c2C(C)CC3O)CC1)c1ccc(Cl)cc1 (stereo not drawn) + CCn1c(-c2cc(N3CCN(C)CC3)cnc2C(C)OC)c2c3cc(ccc31)-c1csc(n1)CC(NC(=O)C1CC1C)C(=O)N1CCCC(N1)C(=O)OCC(C)(C)C2 the IC50 (second compound 0.000949 µM) was 3880 nM, the IC50 (second compound 0.003 µM) was 2300 nM and the IC50 (second compound 0.00949 µM) was 587 nM. The IC50 (second compound 0.03 µM) was < 31.6 nM, the IC50 (second compound 0.0949 µM) was < 31.6 nM and the IC50 (second compound 0.3 µM) was < 31.6 nM. For the same compound, the viability, T/C [3] was 121%, the viability, T/C [4] was 119% and the viability, T/C [5] was 80.8%. It also gave a viability, T/C [6] of 88.9%, a viability, T/C [37] of 60% and a viability, T/C [38] of 19.1%. It also gave a viability, T/C [9] of 100%, a viability, T/C [10] of 95% and a viability, T/C [11] of 71.2%. The viability, T/C [12] was 71.3%, the viability, T/C [39] was 44.1% and the viability, T/C [40] was 17%. For the same compound, the viability, T/C [15] was 74.7%, the viability, T/C [16] was 56.9% and the viability, T/C [17] was 58.5%. It also gave a viability, T/C [18] of 48.6%, a viability, T/C [41] of 21.5% and a viability, T/C [42] of 12.3%. It also gave a viability, T/C [21] of 46.9%, a viability, T/C [22] of 46.3% and a viability, T/C [23] of 38.3%. It also gave a viability, T/C [24] of 31.7%, a viability, T/C [43] of 14.8% and a viability, T/C [44] of 15.3%. For the same compound, the viability, T/C [27] was 34.7%, the viability, T/C [28] was 40.6% and the viability, T/C [29] was 30.4%. It also gave a viability, T/C [30] of 30.9%, a viability, T/C [45] of 15% and a viability, T/C [46] of 13.9%. The viability, T/C [33] was 34.2%, the viability, T/C [34] was 38.6% and the viability, T/C [35] was 29.6%. For the same compound, the viability, T/C [36] was 22.4%, the viability, T/C [47] was 19.2% and the viability, T/C [48] was 14.5%.

With CC(Nc1ccc2c(c1)OCCn1cc(N3C(=O)OCC3C(F)F)nc1-2)C(N)=O (stereo not drawn) + CCn1c(-c2cc(N3CCN(C)CC3)cnc2C(C)OC)c2c3cc(ccc31)-c1csc(n1)CC(NC(=O)C1CC1C)C(=O)N1CCCC(N1)C(=O)OCC(C)(C)C2 the IC50 (second compound 0.000949 µM) was 1370 nM, the IC50 (second compound 0.003 µM) was 365 nM and the IC50 (second compound 0.00949 µM) was < 31.6 nM. The IC50 (second compound 0.03 µM) was < 31.6 nM, the IC50 (second compound 0.0949 µM) was < 31.6 nM and the IC50 (second compound 0.3 µM) was < 31.6 nM. For the same compound, the viability, T/C [3] was 91.4%, the viability, T/C [4] was 69.2% and the viability, T/C [5] was 53.9%. For the same compound, the viability, T/C [6] was 61%, the viability, T/C [37] was 49.9% and the viability, T/C [38] was 25.9%. The viability, T/C [9] was 75.9%, the viability, T/C [10] was 52.7% and the viability, T/C [11] was 47.5%. The viability, T/C [12] was 46.2%, the viability, T/C [39] was 36.7% and the viability, T/C [40] was 15.7%. The viability, T/C [15] was 48.4%, the viability, T/C [16] was 36.8% and the viability, T/C [17] was 36.1%. It also gave a viability, T/C [18] of 27.4%, a viability, T/C [41] of 19.2% and a viability, T/C [42] of 12.6%. It also gave a viability, T/C [21] of 33.1%, a viability, T/C [22] of 23.2% and a viability, T/C [23] of 22.5%. For the same compound, the viability, T/C [24] was 21.5%, the viability, T/C [43] was 13.8% and the viability, T/C [44] was 14.7%. For the same compound, the viability, T/C [27] was 27.1%, the viability, T/C [28] was 24.8% and the viability, T/C [29] was 20.5%. The viability, T/C [30] was 21.5%, the viability, T/C [45] was 12.8% and the viability, T/C [46] was 14%. It also gave a viability, T/C [33] of 32.5%, a viability, T/C [34] of 20.1% and a viability, T/C [35] of 21.3%. It also gave a viability, T/C [36] of 17.3%, a viability, T/C [47] of 13.4% and a viability, T/C [48] of 15.7%.

O=C(c1ccc(F)c(F)c1Nc1ccc(I)cc1F)N1CC(O)([C@@H]2CCCCN2)C1 + CCn1c(-c2cc(N3CCN(C)CC3)cnc2C(C)OC)c2c3cc(ccc31)-c1csc(n1)CC(NC(=O)C1CC1C)C(=O)N1CCCC(N1)C(=O)OCC(C)(C)C2 showed an IC50 (second compound 0.000949 µM) of 319 nM, an IC50 (second compound 0.003 µM) of 113 nM and an IC50 (second compound 0.00949 µM) of 56.7 nM. For the same compound, the IC50 (second compound 0.03 µM) was < 3.16 nM, the IC50 (second compound 0.0949 µM) was < 3.16 nM and the IC50 (second compound 0.3 µM) was < 3.16 nM. For the same compound, the viability, T/C [1] was 119%, the viability, T/C [2] was 113% and the viability, T/C [3] was 78.7%. It also gave a viability, T/C [4] of 75.9%, a viability, T/C [5] of 51.2% and a viability, T/C [6] of 27%. The viability, T/C [7] was 86.3%, the viability, T/C [8] was 73.3% and the viability, T/C [9] was 56.9%. It also gave a viability, T/C [10] of 56.5%, a viability, T/C [11] of 39.3% and a viability, T/C [12] of 37.3%. It also gave a viability, T/C [13] of 65.5%, a viability, T/C [14] of 52% and a viability, T/C [15] of 67.8%. For the same compound, the viability, T/C [16] was 38.5%, the viability, T/C [17] was 28.5% and the viability, T/C [18] was 30.9%. For the same compound, the viability, T/C [19] was 49.9%, the viability, T/C [20] was 45.9% and the viability, T/C [21] was 33.1%. The viability, T/C [22] was 32.2%, the viability, T/C [23] was 29.2% and the viability, T/C [24] was 37.3%. The viability, T/C [25] was 36.7%, the viability, T/C [26] was 35.3% and the viability, T/C [27] was 32.9%. It also gave a viability, T/C [28] of 41.7%, a viability, T/C [29] of 32.8% and a viability, T/C [30] of 37.5%. It also gave a viability, T/C [31] of 37%, a viability, T/C [32] of 39.1% and a viability, T/C [33] of 37%. The viability, T/C [34] was 38.7%, the viability, T/C [35] was 32.9% and the viability, T/C [36] was 38.3%.
